Common to all, as to test: NCI-60 cell line screen, 48 h
The test system of assay [1] is A498 renal.
For assay [2], the system named is HT29 colon.
Assay [3] has as its system LOX IMVI melanoma.
The test system of assay [4] is NCI-H460 lung.
In assay [5] the test system is NCI/ADR-RES ovarian.
For assay [6], the system named is RXF 393 renal.
Assay [7] relates to UACC-62 melanoma.
The subject of assay [8] is UO-31 renal.

Values joined by “and” are separate entries in the source; they are usually repeats but may differ in a detail not shown here. Equal entries are not always repeated.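 Interpolation was linear, between the two tested concentrations surrounding the appropriate level; five concentrations were tested over 48 hours in 96-well plates. GI50 is the concentration that inhibits growth by half. TGI is the concentration that stops growth completely.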

For the compound `c1ccc2cc(C[n+]3ccn(Cc4ccc5ccccc5n4)c3)ccc2c1`, the GI50 in assay [1] was 0.492 µM and 2.49 µM; in assay [2], 0.366 µM and 2.55 µM; in assay [3], 0.435 µM and 2.9 µM; in assay [4] it was 0.456 µM and 3.74 µM; in assay [5] it was over 100 µM; in assay [7], 0.374 µM and 1.91 µM. Further, in assay [8], the GI50 is 10.6 µM and 35.8 µM. The TGI is 3.9 µM and 24.1 µM in assay [1]; 3.01 µM and 14.3 µM in assay [2]; 1.68 µM and 11.4 µM in assay [3]; 10.8 µM and 14.6 µM in assay [4]; over 100 µM in assay [5]; 3.23 µM and 19.7 µM in assay [6]. Further, the TGI in assay [7] is 1.5 µM and 5.94 µM; in assay [8], 25.4 µM and > 100 µM.
As for `C=C(C)[C@@H]1CC[C@]2(C(=O)O)CC[C@]3(C)[C@H](CC[C@@H]4[C@@]5(C)C/C(=C/c6cccc(I)c6)C(=O)C(C)(C)[C@@H]5CC[C@]43C)[C@@H]12`, the GI50 in assay [1] is 2.1 µM; in assay [2], 2.9 µM; in assay [3], 1.72 µM; in assay [4] it was 1.9 µM; in assay [5] it was 3.22 µM; in assay [6], 2.88 µM. The results for the GI50 in assay [7] and in assay [8] were 1.82 µM and 1.72 µM, respectively. Also, the TGI in assay [1] stood at 6.72 µM; in assay [2], 9.76 µM; in assay [3] it was 3.58 µM; in assay [4], 4.27 µM; in assay [5] it was 14.2 µM; in assay [6], 11.8 µM. The figures for the TGI in assay [7] and in assay [8] were 4.16 µM and 5.17 µM, respectively.
As to `CCCCCCCCCCC[C@@H](C[C@H]1OC(=O)[C@H]1CCCCCC)OC(=O)[C@@H](CC(C)C)NC=O`, the GI50 in assay [1] was 4.64 µM; in assay [2], 3.18 µM; in assay [3] it was 1.65 µM; in assay [4], 3.63 µM; in assay [5], 2.86 µM; in assay [6] it was 1.71 µM. Further, the results for the GI50 in assay [7] and in assay [8] were 4.95 µM and 2.52 µM, respectively. In addition, the TGI came to 29.9 µM in assay [1]; 35.6 µM in assay [2]; 9.6 µM in assay [3]; 21.1 µM in assay [4]; 15.2 µM in assay [5]; 16.8 µM in assay [6]. The TGI in assay [7] worked out at 25.2 µM; in assay [8] it was 59.6 µM.
Consider `O=C(c1ccco1)c1nc2cc(C(F)(F)F)ccc2[n+]([O-])c1C(F)(F)F`, for which the GI50 in assay [1] is 39.3 µM; in assay [2] it was 33.6 µM; in assay [3] it was 40.1 µM; in assay [4], 61 µM; in assay [5] it was 32.4 µM; in assay [6] it was 61.4 µM. Also, the GI50 in assay [7] was 45.9 µM; in assay [8], 58.8 µM. In addition, the TGI in assay [1], in assay [2], in assay [3], in assay [4], in assay [5] and in assay [6] was over 100 µM each time. Further, the TGI in assay [7] and in assay [8] was over 100 µM each time.
For `C[C@@H](Oc1cc(-n2cnc3ccc(OCC4CCN(C)CC4)cc32)sc1C(N)=O)c1ccccc1Cl`, the GI50 in assay [1] was 0.0927 µM; in assay [2], 0.0108 µM; in assay [3], 0.0926 µM; in assay [4], 0.0846 µM; in assay [5], 0.258 µM; in assay [6] it was 0.0546 µM. The GI50 in assay [7] was 0.0957 µM; in assay [8] it was 0.616 µM. Besides, the TGI amounted to 0.713 µM in assay [1]; 2.68 µM in assay [2]; 3.6 µM in assay [3]; 3.04 µM in assay [4]; 2.4 µM in assay [5]; 2.76 µM in assay [6]. Besides, the values for the TGI in assay [7] and in assay [8] were 4.07 µM and 3.96 µM, respectively.
For the compound `CCOC(=O)c1ccc(N(C=O)CCC(=O)CCl)cc1`, the GI50 in assay [1] was 1.47 µM; in assay [2] it was 0.186 µM; in assay [3], 0.0586 µM; in assay [4], 0.355 µM; in assay [5], 0.393 µM; in assay [6] it was 0.26 µM. For the same compound, the values for the GI50 in assay [7] and in assay [8] were 0.524 µM and 0.552 µM, respectively. The TGI is 5.87 µM in assay [1]; 1.18 µM in assay [2]; 1.31 µM in assay [3]; 11.1 µM in assay [4]; 19.4 µM in assay [5]; 4.49 µM in assay [6]. Moreover, the TGI in assay [7] came out at 3.69 µM; in assay [8], 1.98 µM.
With `O=C1NC(=O)[C@@H](c2c[nH]c3ccccc23)[C@@H]1c1c[nH]c2ccccc12`, the GI50 in assay [1], in assay [2], in assay [3], in assay [4], in assay [5] and in assay [6] was over 25 µM throughout. Also, the GI50 in assay [7] is over 25 µM; in assay [8], over 16.4 µM. Besides, the TGI in assay [1], in assay [2], in assay [3], in assay [4], in assay [5] and in assay [6] was over 25 µM each time. The TGI in assay [7] and in assay [8] was over 25 µM in each case.
Take `COc1cc(/C=C/C(=N\NC(=S)NN)c2sc(NNC(C)=O)nc2C)ccc1O`: the TGI in assay [1], in assay [2], in assay [3], in assay [4], in assay [5] and in assay [6] was over 100 µM each time. Further, the TGI in assay [7] and in assay [8] was over 100 µM each time.
Take `CCCCCCCCCCCC1=NC(C)(C)CN1CC(C)O` (stereo not given): the GI50 in assay [1] is 10 µM; in assay [2], 1.43 µM; in assay [3], 1.85 µM; in assay [4] it was 2.35 µM; in assay [5], 11.8 µM; in assay [6], 2.55 µM. Moreover, the figures for the GI50 in assay [7] and in assay [8] were 1.78 µM and 4.75 µM, respectively. Moreover, the TGI in assay [1] turned out to be 22.8 µM; in assay [2], 2.86 µM; in assay [3] it was 4.42 µM; in assay [4], 5.05 µM; in assay [5] it was 24.1 µM; in assay [6], 6.96 µM. Moreover, the values for the TGI in assay [7] and in assay [8] were 3.47 µM and 18.7 µM, respectively.

For the origin of these results see PubChem BioAssay (NCI).
